The test system of assay [1] is Aβ42. The assay can be described thus: γ-secretase-modulating activity, Method 1: Aβ42 sandwich ELISA in supernatant of SKNBE2 cells carrying APP 695-wild type (Table 3a). In kind it is cell-based. Conditions: 18 h, averaged IC50 values. Here is the method: Pharmacology A) Screening of the Compounds of the Invention for γ-Secretase-Modulating Activity A1) Method 1
Screening was carried out using SKNBE2 cells carrying the APP 695-wild type, grown in Dulbecco's Modified Eagle's Medium/Nutrient mixture F-12 (DMEM/NUT-mix F-12) (HAM) provided by Gibco (cat no. 31330-38) containing 5% Serum/Fe supplemented with 1% non-essential amino acids. Cells were grown to near confluency.
The screening was performed using the assay as described in Citron et al (1997) Nature Medicine 3: 67. Briefly, cells were plated in a 96-well plate at about 10^5 cells/ml one day prior to addition of compounds. Compounds were added to the cells in Ultraculture (Lonza, BE12-725F) supplemented with 1% glutamine (Invitrogen, 25030-024) for 18 h. The media were assayed by two sandwich ELISAs, for Aβ42 and Aβtotal. Toxicity of the compounds was assayed by WST-1 cell proliferation reagent (Roche, 1 644 807) according to the manufacturer's protocol.
To quantify the amount of Aβ42 in the cell supernatant, commercially available Enzyme-Linked-Immunosorbent-Assay (ELISA) kits were used (Innotest® β-Amyloid(1-42), Innogenetics N.V., Ghent, Belgium). The Aβ42 ELISA was performed essentially according to the manufacturer's protocol. Briefly, the standards (dilutions of synthetic Aβ1-42) were prepared in polypropylene Eppendorf with final concentrations of 8000 down to 3.9 pg/ml (1/2 dilution step). Samples, standards and blanks (100 μl) were added to the anti-Aβ42-coated plate supplied with the kit (the capture antibody selectively recognizes the C-terminal end of the antigen). The plate was allowed to incubate 3 h at 25° C. in order to allow formation of the antibody-amyloid complex. Following this incubation and subsequent wash steps a selective anti-Aβ-antibody conjugate (biotinylated 3D6) was added and incubated for a minimum of 1 hour (h) in order to allow formation of the antibody-Amyloid-antibody-complex. After incubation and appropriate wash steps, a Streptavidine-Peroxidase-Conjugate was added, followed 30 minutes later by an addition of 3,3′,5,5′-tetramethylbenzidine (TMB)/peroxide mixture, resulting in the conversion of the substrate into a coloured product. This reaction was stopped by the addition of sulfuric acid (0.9 N) and the colour intensity was measured by means of photometry with an ELISA-reader with a 450 nm filter.
To obtain the values reported in Table 3a, the data were calculated as percentage of the maximum amount of amyloid Beta 42 measured in the absence of the test compound. The sigmoidal dose response curves were analyzed using non-linear regression analysis with percentage of the control plotted against the log concentration of the compound. A 4-parameter equation was used to determine the IC50. The values reported in Table 3a are averaged IC50 values.

In assay [2] the test system is Aβ42. The assay can be described thus: In vivo efficacy, Method 1: brain soluble Aβ42 lowering 4 h after a single oral dose, ELISA (Table 4a). To be noted: dose 30 mg/kg oral dosing. Also on record: species or system mouse. An excerpt:
(§1) To determine whether acute administration of an Aβ42 lowering agent would reduce Aβ42 levels in vivo, non-transgenic rodents, e.g. mice or rats were used. Alternatively, two to three month old Tg2576 mice expressing APP695 containing the “Swedish” variant can be used or a transgenic mouse model developed by Dr. Fred Van Leuven (K.U. Leuven, Belgium) and co-workers, with neuron-specific expression of a clinical mutant of the human amyloid precursor protein [V717I] (Moechars et al., 1999 J. Biol. Chem. 274, 6483). Young transgenic mice have high levels of Aβ in the brain but no detectable Aβ deposition. At approximately 6-8 months of age, the transgenic mice start to display spontaneous, progressive accumulation of β-amyloid (Aβ) in the brain, eventually resulting in amyloid plaques within the subiculum, hippocampus and cortex. Animals treated with the Aβ42 lowering agent were examined and compared to those untreated or treated with vehicle and brain levels of soluble Aβ42 and total Aβ would be quantitated by standard techniques, for example, using ELISA. Treatment periods varied from hours (h) to days and were adjusted based on the results of the Aβ42 lowering once a time course of onset of effect could be established.
(§2) A typical protocol for measuring Aβ42 lowering in vivo is shown but it is only one of many variations that could be used to optimize the levels of detectable Aβ. For example, Aβ42 lowering compounds were formulated in 20% of Captisol® (a sulfobutyl ether of β-cyclodextrin) in water or 20% hydroxypropyl cyclodextrin. The Aβ42 lowering agents were administered as a single oral dose or by any acceptable route of administration to overnight fasted animals. After 4 h, the animals were sacrificed and Aβ42 levels were analysed.
(§3) Blood was collected by decapitation and exsanguinations in EDTA-treated collection tubes. Blood was centrifuged at 1900 g for 10 minutes (min) at 4° C. and the plasma recovered and flash frozen for later analysis. The brain was removed from the cranium and hindbrain. The cerebellum was removed and the left and right hemisphere were separated. The left hemisphere was stored at −18° C. for quantitative analysis of test compound levels. The right hemisphere was rinsed with phosphate-buffered saline (PBS) buffer and immediately frozen on dry ice and stored at −80° C. until homogenization for biochemical assays.
(§4) Mouse brains were resuspended in 10 volumes of 0.4% DEA (diethylamine)/50 mM NaCl pH 10 (for non-transgenic animals) or 0.1% 3-[(3-cholamidopropyl)-dimethyl-ammonio]-1-propanesulfonate (CHAPS) in tris buffered saline (TBS) (for transgenic animals) containing protease inhibitors (Roche-11873580001 or 04693159001) per gram of tissue, e.g. for 0.158 g brain, add 1.58 ml of 0.4% DEA. All samples were sonicated for 30 seconds on ice at 20% power output (pulse mode). Homogenates were centrifuged at 221.300×g for 50 min. The resulting high speed supernatants were then transferred to fresh tubes and were optionally further purified before the next step. A portion of the supernatant was neutralized with 10% 0.5 M Tris-HCl and this was used to quantify Aβtotal.
The obtained supernatants were purified with Water Oasis HLB reverse phase columns (Waters Corp., Milford, Mass.) to remove non-specific immunoreactive material from the brain lysates prior subsequent Aβ detection. Using a vacuum manifold, all solutions were passed through the columns at a rate of approximately 1 ml per min, so the vacuum pressure was adjusted accordingly throughout the procedure. Columns were preconditioned with 1 ml of 100% MeOH, before equilibration with 1 ml of H2O, Non-neutralized brain lysates were loaded onto the columns. The loaded samples were then washed twice with the first wash performed with 1 ml of 5% MeOH, and the second wash with 1 ml of 30% MeOH. Finally, the Aβ was eluted from the columns and into 100×30 mm glass tubes, with a solution of 90% MeOH with 2% NH4OH. […]
Background: An ELISA detects its analyte on a solid surface through an enzyme-linked reagent.

Assay [3] concerns Aβtotal. Briefly: In vivo efficacy, Method 1: brain soluble Aβtotal lowering 4 h after a single oral dose, ELISA (Table 4a). More on the design: species or system mouse. To be noted: dose 30 mg/kg oral dosing.
Description: as §1, §2, §3, §4
To quantify the amount of Aβ42 in the soluble fraction of the brain homogenates, commercially available Enzyme-Linked-Immunosorbent-Assay (ELISA) kits were used (e.g. Innotest® β-Amyloid(1-42), Innogenetics N.V., Ghent, Belgium). The Aβ42 ELISA was performed using the plate provided with the kit only. Briefly, the standards (a dilution of synthetic Aβ1-42) were prepared in 1.5 ml Eppendorf tube in Ultraculture, with final concentrations ranging from 25000 to 1.5 pg/ml. Samples, standards and blanks (60 μl) were added to the anti-Aβ42-coated plate (the capture antibody selectively recognizes the C-terminal end of the antigen). The plate was allowed to incubate overnight at 4° C. in order to allow formation of the antibody-amyloid complex. […]

The record followed here is patent US8946266B2, “Substituted triazole and imidazole derivatives as gamma secretase modulators” (Janssen Pharmaceuticals, Inc., priority 2009, dated 2015).

The IC50 is the concentration needed to halve the response being measured. `COc1cc(-c2nc(-c3ccccc3)n(C)n2)ccc1-n1cnc(C)c1` [Compound 9] registered an IC50 in assay [1] (Homo sapiens) of 790 nM. Further, in assay [2], the “Aβ42 (% Ctrl) _Mean” value was 24 % Ctrl. For the same compound, in assay [3], the “Aβtotal (% Ctrl) _Mean” value stood at 0 % Ctrl.
The like results for `COc1cc(-c2nc(C)c(-c3ccccc3)[nH]2)ccc1-n1cnc(C)c1` [Compound 11] were, in that order, 110 nM, 4 % Ctrl and −4 % Ctrl.
`COc1cc(-c2nc(Nc3ccc(F)cc3C(F)(F)F)n(C)n2)ccc1-n1cnc(C)c1` [Compound 15]: half-maximal inhibition in assay [1] (IC50) was put at 250 nM. Moreover, the “Aβ42 (% Ctrl) _Mean” value in assay [2] is reported as 42 % Ctrl. In addition, the “Aβtotal (% Ctrl) _Mean” value in assay [3] stood at 3 % Ctrl.
For the compound `COc1cc(-c2nc(Nc3cccc(C(F)(F)F)c3)n(C)n2)ccc1-n1cnc(C)c1` [Compound 146], the “Aβ42 (% Ctrl) _Mean” value in assay [2] stood at 27 % Ctrl. Besides, the “Aβtotal (% Ctrl) _Mean” value in assay [3] came out at 14 % Ctrl.
